Like-named read-outs stand apart in the source and are kept apart here.
Target: T1, IL33 and ST2 binding (Homo sapiens, UniProt O95760)
T1 sequence (O95760 112-270 limits assumed): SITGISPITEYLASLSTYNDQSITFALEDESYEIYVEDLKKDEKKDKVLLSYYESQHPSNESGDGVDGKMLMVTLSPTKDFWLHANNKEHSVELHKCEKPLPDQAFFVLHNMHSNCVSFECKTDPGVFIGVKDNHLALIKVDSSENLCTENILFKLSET
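Note: plate ELISA with coated Flag-tagged human IL-33 and His-tagged human ST2, bound ST2 detected by anti-His HRP and TMB absorbance at 450 nm, 2 h compound incubation.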

Row | Compound | inhibition (30 µM) [%] | inhibition (100 µM) [%]
1 | COc1ccc(CNC(=O)c2nc(-c3ccc(C(F)(F)F)cc3)oc2-c2ccccc2[N+](=O)[O-])cc1 [Compound 166, N-(4-Methoxybenzyl)-5-(2-nitrophenyl)-2-(4-(trifluoromethyl)phenyl)oxazole-4-carboxamide] | 14 | 5
2 | CN(C)CCNC(=O)c1nc(-c2ccc([N+](=O)[O-])cc2)oc1-c1ccccc1 [Compound 275, N-(2-(Dimethylamino)ethyl)-2-(4-nitrophenyl)-5-phenyloxazole-4-carboxamide] | -16 | -28
3 | CCOC(=O)c1nc(-c2ccc(F)cc2)oc1-c1ccccc1[N+](=O)[O-] [Compound 68, Ethyl 2-(4-fluorophenyl)-5-(2-nitrophenyl)oxazole-4-carboxylate] | 55 | 105
4 | CCOC(=O)c1nc(-c2cccc(OC)c2)oc1-c1ccccc1 [Compound 60, Ethyl 2-(3-methoxyphenyl)-5-phenyloxazole-4-carboxylate] | 27 | 68
5 | COc1ccc(-c2nc(C(=O)NCCN3CCN(C)CC3)c(-c3ccc([N+](=O)[O-])cc3)o2)cc1 [Compound 219, 2-(4-methoxyphenyl)-N-(2-(4-methylpiperazin-1-yl)ethyl)-5-(4-nitrophenyl)oxazole-4-carboxamide] | 11 | 44
6 | CN(C)CCNC(=O)c1nc(-c2cc(F)cc(F)c2)oc1-c1ccccc1[N+](=O)[O-] [Compound 237, 2-(3,5-Difluorophenyl)-N-(2-(dimethylamino)ethyl)-5-(2-nitrophenyl)oxazole-4-carboxamide] | -34 | -16
7 | CCOC(=O)c1nc(-c2ccc(C(F)(F)F)cc2)oc1-c1cccc(N(C(C)=O)C(C)=O)c1 [Compound 108, Ethyl 5-(3-(N-acetylacetamido)phenyl)-2-(4-(trifluoromethyl)phenyl)oxazole-4-carboxylate] | -14 | -21
8 | CN1CCN(CCNC(=O)c2nc(-c3ccc(OC(F)(F)F)cc3)oc2-c2ccccc2[N+](=O)[O-])CC1 [Compound 206, N-(2-(4-methylpiperazin-1-yl)ethyl)-5-(2-nitrophenyl)-2-(4-(trifluoromethoxy)phenyl)oxazole-4-carboxamide] | 23 | 49
9 | CCOC(=O)c1nc(-c2cccc(OC(F)(F)F)c2)oc1-c1ccccc1 [Compound 56, Ethyl 5-phenyl-2-(3-(trifluoromethoxy)phenyl)oxazole-4-carboxylate] | 40 | 93
10 | CN1CCN(CCNC(=O)c2nc(-c3ccc(C(F)(F)F)cc3)oc2-c2ccccc2)CC1 [Compound 127, N-(2-(4-Methylpiperazin-1-yl)ethyl)-5-phenyl-2-(4-(trifluoromethyl)phenyl)oxazole-4-carboxamide] | -24 | -5
11 | CCOC(=O)c1nc(-c2ccc3ccccc3c2)oc1-c1ccccc1[N+](=O)[O-] [Compound 84, Ethyl 2-(naphthalen-2-yl)-5-(2-nitrophenyl)oxazole-4-carboxylate] | 20 | 54
12 | CCN(CC)CCNC(=O)c1nc(-c2ccc(C(C)(C)C)cc2)oc1-c1ccccc1 [Compound 267, 2-(4-(tert-butyl)phenyl)-N-(2-(diethylamino)ethyl)-5-phenyloxazole-4-carboxamide] | 23 | 29
13 | CCOC(=O)c1nc(-c2cccc(C(F)(F)F)c2)oc1-c1ccccc1[N+](=O)[O-] [Compound 30, Ethyl 5-(2-nitrophenyl)-2-(3-(trifluoromethyl)phenyl)oxazole-4-carboxylate] | 42 | 102
14 | CC(=O)c1ccc(NC(=O)c2nc(-c3ccc(C(F)(F)F)cc3)oc2-c2ccccc2[N+](=O)[O-])cc1 [Compound 147, N-(4-Acetylphenyl)-5-(2-nitrophenyl)-2-(4-(trifluoromethyl)phenyl)oxazole-4-carboxamide] | 1 | 4
15 | CN1CCN(CCNC(=O)c2nc(-c3ccc(C(C)(C)C)cc3)oc2-c2ccccc2)CC1 [Compound 266, 2-(4-(tert-butyl)phenyl)-N-(2-(4-methylpiperazin-1-yl)ethyl)-5-phenyloxazole-4-carboxamide] | -29 | 10
16 | CN1CCN(CCNC(=O)c2nc(-c3ccccc3C(F)(F)F)oc2-c2ccccc2)CC1 [Compound 118, N-(2-(4-Methylpiperazin-1-yl)ethyl)-5-phenyl-2-(2-(trifluoromethyl)phenyl)oxazole-4-carboxamide] | 24 | 36
17 | CN(C)CCNC(=O)c1nc(-c2ccc(N(C)C)cc2)oc1-c1ccccc1 [Compound 261, N-(2-(Dimethylamino)ethyl)-2-(4-(dimethylamino)phenyl)-5-phenyloxazole-4-carboxamide] | 3 | 8
18 | O=C(c1nc(-c2ccc(C(F)(F)F)cc2)oc1-c1ccccc1[N+](=O)[O-])N1CCOCC1 [Compound 156, Morpholino(5-(2-nitrophenyl)-2-(4-(trifluoromethyl)phenyl)oxazol-4-yl)methanone] | -1 | 41
19 | CCOC(=O)c1nc(-c2ccc(OC)cc2)oc1-c1ccccc1 [Compound 62, Ethyl 2-(4-methoxyphenyl)-5-phenyloxazole-4-carboxylate] | 33 | 65
20 | O=C(c1nc(-c2ccc(C(F)(F)F)cc2)oc1-c1ccccc1[N+](=O)[O-])N1CCN(CCN2CCOCC2)CC1 [Compound 152, (4-(2-Morpholinoethyl)piperazin-1-yl)(5-(2-nitrophenyl)-2-(4-(trifluoromethyl)phenyl)oxazol-4-yl)methanone] | 36 | 48
21 | O=C(NCc1ccncc1)c1nc(-c2ccc(C(F)(F)F)cc2)oc1-c1ccccc1[N+](=O)[O-] [Compound 141, 5-(2-Nitrophenyl)-N-(pyridin-4-ylmethyl)-2-(4-(trifluoromethyl)phenyl)oxazole-4-carboxamide] | -11 | -3
22 | O=C(c1nc(-c2ccc(C(F)(F)F)cc2)oc1-c1ccccc1[N+](=O)[O-])N1CCC(O)CC1 [Compound 161, (4-Hydroxypiperidin-1-yl)(5-(2-nitrophenyl)-2-(4-(trifluoromethyl)phenyl)oxazol-4-yl)methanone] | -16 | -11
23 | CN1CCN(CCNC(=O)c2nc(-c3ccc4ccccc4c3)oc2-c2ccccc2)CC1 [Compound 258, N-(2-(4-Methylpiperazin-1-yl)ethyl)-2-(naphthalen-2-yl)-5-phenyloxazole-4-carboxamide] | 35 | 49
24 | COc1ccc(-c2nc(C(=O)NCCN(C)C)c(-c3ccccc3[N+](=O)[O-])o2)cc1 [Compound 214, N-(2-(Dimethylamino)ethyl)-2-(4-methoxyphenyl)-5-(2-nitrophenyl)oxazole-4-carboxamide] | -28 | -49
25 | CN(C)CCNC(=O)c1nc(-c2ccc(C#N)cc2)oc1-c1ccccc1[N+](=O)[O-] [Compound 251, 2-(4-Cyanophenyl)-N-(2-(dimethylamino)ethyl)-5-(2-nitrophenyl)oxazole-4-carboxamide] | -6 | -21
